# System: canine plasma albumin
# Assay: Plasma protein binding (PPB), canine plasma
# Assay type: in vitro ADME
# Conditions: ultracentrifugation, 37° C., 4 h
# Protocol: The binding degree of the assay compound to human/mouse/rat/canine/monkey plasma albumin was studied.
# • 1) Matrix preparation: on the day of the assay, plasma was thawed in cold water and centrifuged at 3220 rpm for 5 min to remove all clots. The pH of the resulting plasma was measured and adjusted to 7.4±0.1 using 1% phosphoric acid or 1N sodium hydroxide as needed. • 2) Dilution procedure for the assay compound: the assay compound was dissolved in dimethyl sulfoxide (DMSO) to prepare stock solutions with concentrations of 10 mM and 2 mM, respectively. A 40 μM working solution was prepared by diluting 2 μL of stock solution (2 mM) with 98 μL of DMSO. A 400 μM working solution of the control compound was prepared by diluting 10 μL of stock solution with 240 μL of DMSO. The working solution of the compound (5 μL) was mixed well with a blank matrix (995 μL) at a ratio of 1:200 to prepare a loading matrix.
# • a) An equal volume of 30 μL of loading matrix (n=2) was transferred to a sample collection plate to prepare a time 0 (TO) sample for residue determination. The sample was immediately matched with the corresponding blank buffer to a final volume of 60 μL, and the volume ratio of plasma to buffer in each well was 1:1. […] The mixture was centrifuged at 4000 rpm for 20 min and 100 μL of supernatant from each sample was analyzed by LC-MS/MS.
smiles,measurement,value
Cc1cccc(CN2C(=O)c3nc(-c4nc(Nc5ccnn5C)ncc4C)sc3C2(C)C)n1 [WX001],Plasma protein binding rate (unbound %),4.1%
